Patent US20250099596A1, “TETRAHYDRONAPHTHALENE COMPOUND, AND PREPARATION METHOD THEREFOR AND USE THEREOF IN MEDICINE” (Jiangsu Hengrui Pharmaceuticals Co., Ltd., priority 2021, published 2025)

Columns and labels:
MCF7/ERα Y537S cells = assay: Inhibitory activity on proliferation of ERα mutant-expressing MCF7 cells; format: cell-based; conditions: Homo sapiens, 144 h, 6 days incubation, CellTiter-Glo, read-out: IC50 (nM), inhibition of proliferation of ERα mutant-expressing MCF7 cells
Description: The objective of this experiment was to determine the inhibitory activity of the compounds of the present disclosure on the proliferation of ERα mutant-expressing MCF7 cells.
(§1) MCF7 cells expressing the ERα Y537S mutant were constructed by lentiviral infection. MCF7/ERα Y537S cells were cultured in an MEM (GE Healthcare, SH30024.01) complete medium containing 10% fetal bovine serum and 1 g/mL puromycin. On day 1 of the experiment, cells were seeded into a 96-well plate at a density of 3,000 cells/well using MEM containing 2% fetal bovine serum, with each well containing 135 µL of cell suspension. The plate was incubated in a 37° C., 5% CO2 cell incubator overnight. The next day, different concentrations of test compounds prepared in media were added at 15 μL/well. The final concentrations of the compounds were 9 concentration points obtained by 4-fold serial dilution from 1000 nM. A blank control containing 0.5% DMSO was set up. The plate was incubated in a 37° C., 5% CO2 cell incubator for 6 days. On day 8, the 96-well cell culture plate was taken out, and CellTiter-Glo® Luminescent Cell Viability Assay (Promega, G7573) was added at 75 µL/well. After the plate was left at room temperature for 10 min, luminescence signal readings were taken on a multilabel microplate reader (PerkinElmer, VICTOR 3). The IC50 values for the inhibitory activity of the compounds were calculated from the concentrations of the compounds and the luminescence signal readings using Graphpad Prism software.

MCF7 cells = assay: Inhibitory effects on MCF7 cell proliferation (CellTiter-Glo); format: cell-based; conditions: Homo sapiens, 144 h, 6 days incubation, read-out: IC50 (nM), inhibition of MCF7 cell proliferation
Description: as §1, with “(TCHu74, National Collection of Authenticated Cell Cultures)” for “expressing the ERα Y537S mutant were constructed by lentiviral infection. MCF7/ERα Y537S cells”, “serum.” for “serum and 1 g/mL puromycin.”, “experiment, MCF7” for “experiment,”, “μL” for “µL”, “μL/well.” for “µL/well.”

Row | SMILES | IC50 (MCF7/ERα Y537S cells) [nM] | IC50 (MCF7 cells) [nM]
1 | CC[C@H]1CCc2cc(O)ccc2[C@H]1c1ccc(N2CCC(CN3CCN(c4ccc5c(c4)CN([C@H]4CCC(=O)NC4=O)C5=O)CC3)CC2)cc1 [Example 28, (S)-3-(5-(4-((1-(4-((1R,2S)-6-Hydroxy-2-ethyl-1,2,3,4-tetrahydronaphthalen-1-yl)phenyl)piperidin-4-yl)methyl)piperazin-1-yl)-1-oxoisoindolin-2-yl)piperidine-2,6-dione] | 5.21 | 1.51
2 | O=C1CC[C@H](N2Cc3cc(N4CCN(CC5CCN(c6ccc([C@@H]7c8ccc(O)cc8CCC78CCOCC8)cc6)CC5)CC4)ccc3C2=O)C(=O)N1 [Example 22, (S)-3-(5-(4-((1-(4-((R)-6-Hydroxy-2′,3,3′,4,5′,6′-hexahydro-1H-spiro[naphthalene-2,4′-pyran]-1-yl)phenyl)piperidin-4-yl)methyl)piperazin-1-yl)-1-oxoisoindolin-2-yl)piperidine-2,6-dione] | 9.19 | 3.13
3 | O=C1CCC(N2Cc3cc(N4CCN(CC5CCN(c6ccc([C@@H]7c8ccc(O)cc8CC[C@@H]7C7CCOCC7)cc6F)CC5)CC4)ccc3C2=O)C(=O)N1 (relative stereo) [Example 3, 3-(5-(4-((1-(2-Fluoro-4-((1,2)-cis-6-hydroxy-2-(tetrahydro-2H-pyran-4-yl)-1,2,3,4-tetrahydronaphthalen-1-yl)phenyl)piperidin-4-yl)methyl)piperazin-1-yl)-1-oxoisoindolin-2-yl)piperidine-2,6-dione] | 5.79 | 1.56
4 | O=C1CCC(N2Cc3cc(N4CCN(CC5CCN(c6ccc([C@H]7c8ccc(O)cc8CC[C@H]7C7CCCCC7)cc6)CC5)CC4)ccc3C2=O)C(=O)N1 (stereo partly drawn) [Example 15-2, 3-(5-(4-((1-(4-((1S,2S)-2-Cyclohexyl-6-hydroxy-1,2,3,4-tetrahydronaphthalen-1-yl)phenyl)piperidin-4-yl)methyl)piperazin-1-yl)-1-oxoisoindolin-2-yl)piperidine-2,6-dione] | 31.4 | 14.3
5 | CC(C)C[C@H]1CCc2cc(O)ccc2[C@H]1c1ccc(N2CCC(CN3CCN(c4ccc5c(c4)CN([C@@H]4CCC(=O)NC4=O)C5=O)CC3)CC2)cc1 [Example 42, (R)-3-(5-(4-((1-(4-((1R,2R)-6-Hydroxy-2-isobutyl-1,2,3,4-tetrahydronaphthalen-1-yl)phenyl)piperidin-4-yl)methyl)piperazin-1-yl)-1-oxoisoindolin-2-yl)piperidine-2,6-dione] | 3.09 | 0.88
6 | O=C1CC[C@H](N2Cc3cc(N4CCN(CC5CCN(c6ccc([C@@H]7c8ccc(O)cc8CC[C@@H]7C7CC7)cc6F)CC5)CC4)ccc3C2=O)C(=O)N1 [Example 21, (S)-3-(5-(4-((1-(4-((1R,2R)-2-Cyclopropyl-6-hydroxy-1,2,3,4-tetrahydronaphthalen-1-yl)-2-fluorophenyl)piperidin-4-yl)methyl)piperazin-1-yl)-1-oxoisoindolin-2-yl)piperidine-2,6-dione] | 5.66 | 1.72
7 | O=C1CCC(N2Cc3cc(N4CCN(CC5CCN(c6ccc([C@H]7c8ccc(O)cc8CC[C@H]7C7CCOCC7)cc6)CC5)CC4)ccc3C2=O)C(=O)N1 (stereo partly drawn) [Example 8-2, 3-(5-(4-((1-(4-((1S,2S)-6-Hydroxy-2-(tetrahydro-2H-pyran-4-yl)-1,2,3,4-tetrahydronaphthalen-1-yl)phenyl)piperidin-4-yl)methyl)piperazin-1-yl)-1-oxoisoindolin-2-yl)piperidine-2,6-dione] | 92.2 | 36.5
8 | O=C1CCC(N2Cc3cc(N4CCN(CC5CCN(c6ccc([C@H]7c8ccc(O)cc8CC[C@H]7C7CCOCC7)c(F)c6)CC5)CC4)ccc3C2=O)C(=O)N1 (mixture of isomers) [Example 12-2, 3-(5-(4-((1-(3-Fluoro-4-((1R,2S)-6-hydroxy-2-(tetrahydro-2H-pyran-4-yl)-1,2,3,4-tetrahydronaphthalen-1-yl)phenyl)piperidin-4-yl)methyl)piperazin-1-yl)-1-oxoisoindolin-2-yl)piperidine-2,6-dione] | 39.4 | 13.7
9 | O=C1CC[C@@H](N2Cc3cc(N4CCN(CC5CCN(c6ccc([C@@H]7c8ccc(O)cc8CC[C@@H]7C7CCOCC7)cc6F)CC5)CC4)ccc3C2=O)C(=O)N1 [Example 43, (R)-3-(5-(4-((1-(2-Fluoro-4-((1R,2R)-6-hydroxy-2-(tetrahydro-2H-pyran-4-yl)-1,2,3,4-tetrahydronaphthalen-1-yl)phenyl)piperidin-4-yl)methyl)piperazin-1-yl)-1-oxoisoindolin-2-yl)piperidine-2,6-dione] | 36.3 | 3.57
10 | CC1(C)CCc2cc(O)ccc2[C@H]1c1ccc(N2CCC(CN3CCN(c4ccc5c(c4)CN(C4CCC(=O)NC4=O)C5=O)CC3)CC2)cc1 (mixture of isomers) [Example 25-1, 3-(5-(4-((1-(4-((R)-6-Hydroxy-2,2-dimethyl-1,2,3,4-tetrahydronaphthalen-1-yl)phenyl)piperidin-4-yl)methyl)piperazin-1-yl)-1-oxoisoindolin-2-yl)piperidine-2,6-dione] | 12.9 | 2.46
11 | O=C1CC[C@H](N2Cc3cc(N4CCN(CC5CCN(c6ccc([C@@H]7c8ccc(O)cc8CC[C@@H]7C7CCCC7)cc6F)CC5)CC4)ccc3C2=O)C(=O)N1 [Example 19, (S)-3-(5-(4-((1-(4-((1R,2R)-2-cyclopentyl-6-hydroxy-1,2,3,4-tetrahydronaphthalen-1-yl)-2-fluorophenyl)piperidin-4-yl)methyl)piperazin-1-yl)-1-oxoisoindolin-2-yl)piperidine-2,6-dione] | 5.04 | 0.87
12 | CCC(CC)C[C@H]1CCc2cc(O)ccc2[C@H]1c1ccc(N2CCC(CN3CCN(c4ccc5c(c4)CN([C@H]4CCC(=O)NC4=O)C5=O)CC3)CC2)cc1 [Example 38, (S)-3-(5-(4-((1-(4-((1R,2R)-6-Hydroxy-2-(2-ethylbutyl)-1,2,3,4-tetrahydronaphthalen-1-yl)phenyl)piperidin-4-yl)methyl)piperazin-1-yl)-1-oxoisoindolin-2-yl)piperidine-2,6-dione] | 13.8 | 4.64
13 | O=C1CCC(N2Cc3cc(N4CCN(CC5CCN(c6ccc([C@H]7c8ccc(O)cc8CCC78CCC8)cc6)CC5)CC4)ccc3C2=O)C(=O)N1 (mixture of isomers) [Example 23-2, 3-(5-(4-((1-(4-((S)-6′-Hydroxy-3′,4′-dihydro-1′H-spiro[cyclobutane-1,2′-naphthalen]-1′-yl)phenyl)piperidin-4-yl)methyl)piperazin-1-yl)-1-oxoisoindolin-2-yl)piperidine-2,6-dione] | 72.1 | 20
14 | O=C1CCC(N2Cc3cc(N4CCN(CC5CCN(c6ccc([C@@H]7c8ccc(O)cc8CCC78CCCC8)cc6)CC5)CC4)ccc3C2=O)C(=O)N1 (mixture of isomers) [Example 2-1, 3-(5-(4-((1-(4-((R)-6′-Hydroxy-3′,4′-dihydro-1′H-spiro[cyclopentane-1,2′-naphthalen]-1′-yl)phenyl)piperidin-4-yl)methyl)piperazin-1-yl)-1-oxoisoindolin-2-yl)piperidine-2,6-dione] | 7.83 | 1.94
15 | CC(C)C[C@H]1CCc2cc(O)ccc2[C@H]1c1ccc(N2CCC(CN3CCN(c4ccc5c(c4)CN([C@H]4CCC(=O)NC4=O)C5=O)CC3)CC2)c(F)c1 [Example 37, (S)-3-(5-(4-((1-(2-Fluoro-4-((1R,2R)-6-hydroxy-2-isobutyl-1,2,3,4-tetrahydronaphthalen-1-yl)phenyl)piperidin-4-yl)methyl)piperazin-1-yl)-1-oxoisoindolin-2-yl)piperidine-2,6-dione] | 5.27 | 1.46
16 | O=C1CCC(N2Cc3cc(N4CCN(CC5CCN(c6ccc([C@@H]7c8ccc(O)cc8CC[C@@H]7CC7CC7)cc6)CC5)CC4)ccc3C2=O)C(=O)N1 (stereo in doubt) [Example 34, (S)-3-(5-(4-((1-(4-((1R,2R)-2-(Cyclopropylmethyl)-6-hydroxy-1,2,3,4-tetrahydronaphthalen-1-yl)phenyl)piperidin-4-yl)methyl)piperazin-1-yl)-1-oxoisoindolin-2-yl)piperidine-2,6-dione] | 19.2 | 1.51
